How the values were obtained:
Format in all cases: in vivo, mouse
[1] = system: HFD-fed mice; assay: Morris water maze pattern completion test; settings: PER administration
Method: The Morris water maze task was performed as previously described using mice with CD, HFD, and HFD with PER treatment (49). All experiments were performed at approximately the same time of day. Mice were transported from the colony to the holding area and kept undisturbed for 30 minutes prior to the experiment. The tests were performed in a rectangular dimly lit room with a circular pool (Muromachi Kikai Co., Ltd., Tokyo, Japan) of 120 cm diameter filled with opaque water with skim milk (Morinaga, Japan) kept at room temperature. Four large objects illuminated by floor lamps were hung on the black curtains surrounding the pool as cues outside the maze. A hidden circular platform with a diameter of 10 cm was placed 1 cm below the surface of the water and the mice were trained to find the platform 4 times per day at intervals of approximately 60 minutes for 12 days. During training, the mice were released from 4 start points (N, S, E, and W) assigned in a pseudo-random manner and allowed to swim for 300 seconds.
On the thirteenth day, a probe trial was performed under the condition of full-cue (P1). […] Training and probe trial data were collected and analyzed using CompACT VAS/DV video tracking system software. The escape latency to the hidden platform (goal reaching time) was measured.

[2] = system: dendritic arbors and spines of hippocampus; assay: Golgi staining of hippocampus; settings: HFD mice with PER
From the text: Coronal sections of mouse brains from Bregma-0.94 mm to Bregma-4.04 mm (5 mm wide, including the entire hippocampus from dorsal to ventral, medial to lateral) were fixed with 4% paraformaldehyde for 2 days, and then stained with the Golgi Cox staining system (FD Rapid GolgiStain™ Kit, MD 21041, USA). The impregnated tissues were cut into 100 μm sections and counterstained with crystal violet, and the total number of 15 μm spines on the apical dendrites of CA1 and DG and the percentage of morphologic spines (thin, stubby, mushroom) were examined using an Axio Observer Z1 (Carl Zeiss, Germany). Another set of paraformaldehyde-fixed 5 mm wide coronal sections of the brain, including the entire hippocampus, were processed using the passive CLARITY technique (PACT) (62) and examined through Lightsheet Z.1 (Carl Zeiss, Germany) using a 10× clear objective lens, and 3D images of Thy1-YFPH transgenic mice (the Jackson Laboratory, stock number: 003709, strain name: B6. Cg-Tg. (Thy1-YFP) 16Jrs/J) (63, 64), HFD-fed mice, and whole hippocampus of the HFD-fed mice with PER treatment. were acquired respectively. Maximum intensity projection images were acquired along the Z dimension, time dimension, and channel dimension to create an output image with the pixel containing the maximum value for all images in the stack at a particular pixel position. With the Z-stack function, a series of XY images at different focus positions can be acquired to create Z-stack. In this manner, a 3D dataset of 400 μm×400 μm was obtained from the specimens, dorsal to lateral and medial to lateral for each of CA1, CA3, and DG.

[3] = system: NL-G-F mice; assay: Novel object recognition test in Alzheimer's dementia model mice; settings: NL-GF mice (n=5), perampanel 5 mg/kg body weight/day in CD diet from 8 to 13 weeks of age
Method: Mice of CD, HFD, and HFD with PER treatment were handled daily for 5 minutes for 5 days prior to the start of the novel object recognition test. PER means the perampanel, which is an AMPA receptor antagonist. The mice were habituated to a 35 cm square, 25 cm high box for 10 minutes on the first day, and were given 2 identical objects (familiar objects) for 10 minutes on the second day. On the third day, one of the familiar objects was replaced with a novel object of different shape and color (FIG. 2F). […] The search time for each object was measured by offline analysis (47).
NL-GF mice begin to accumulate in the brain of Aβ from 8 weeks of age (Nat. Neurosci. 2014 17, 661-4). In this example, the AD model mouse (n=5) was fed a CD diet containing a perampanel at a dose of 5 mg/kg body weight/day from 8 to 13 weeks of age, and the mouse was subjected to a novel object recognition test. In the negative control (n=5), a normal CD diet without perampanel was taken.
NL-G-F(−/−) mice, a dementia model, were administered with memantine (mema), exercise, memantine and exercise, memantine and perampanel, and perampanel alone (5 mg/kg or 10 mg/kg), and subjected to behavioral experiments. As the behavior test, a novel object recognition test and a hippocampus function-dependent fear conditioning test were performed. […]

Compound: N#Cc1ccccc1-c1cc(-c2ccccn2)cn(-c2ccccc2)c1=O [PER, 3-(2-cyanophenyl)-5-(2-pyridyl)-1-phenyl-1,2-dihydropyridine-2-one]
- pattern completion ability [1]: restored
- Golgi staining positive cells in DG [2]: restored
- integrity of dendritic arbors in CA1 (Golgi staining) [2]: restored
- spine maturation in DG [2]: immature spines became mature
- novel object recognition [3]: significantly distinguish

From US20240398775A1, “PHARMACEUTICAL COMPOSITION FOR USE IN TREATING COGNITIVE DECLINE OR FOR USE IN TREATING OVERWEIGHT OR OBESITY” (University of the Ryukyus, priority 2021, published 2024)
